This note sets out measurements from US12582652B2, “3-(ethoxydifluoromethyl)-6-(5-fluoro-6-(2,2,2-trifluoroethoxy)pyridin-3-yl)-[1,2,4]triazolo[4,3-a]pyrazine as an ion channel modulator” (Praxis Precision Medicines, Inc., priority 2022, dated 2026).

In test [1] the target is hNaV1.1 (Homo sapiens, UniProt P35498). Nature of the test: Peak INa voltage-dependent block, patch clamp. The format is cell-based. The protocol:
(§1) Voltage Dependent Block (VDB): VDB protocols used a depolarized voltage to keep channels in half-inactivated (resting) states. This allowed equilibrium binding and accurate determination of isoform selectivity (in the absence of biological features). For each cell, the midpoint of inactivation (V0.5) was determined using a 5,000 ms step to increase voltages (10 mV increments) to inactivate the channel immediately followed by a 2 ms step to 0 mV to maximally activate the channels. The holding potential (Vhold) was −120 mV between steps. The peak INa measured in response to the step to 0 mV was plotted and fitted with a Boltzmann equation to determine the V0.5. This value was then used for the VDB protocol. Pharmacology was measured during peak INa in response to step to 0 mV. No leak subtraction was used.

In test [2] the target is hNaV1.5 (Homo sapiens, UniProt Q14524). Put plainly: Peak INa voltage-dependent block, patch clamp. The format is cell-based. The protocol:
as §1

The target in test [3] is hNaV1.2 (Homo sapiens, UniProt Q99250). Nature of the test: Peak INa voltage-dependent block, patch clamp. The format is cell-based. As to the method:
as §1
In general terms: Patch clamp records ionic current or voltage across a cell membrane.

For test [4], the target named is T1, human NaV1.6 (Homo sapiens, UniProt Q9UQD0).
T1 construct: stably expressing either human NaV1.6 (NP_055006); expressed in transfected cells
Put plainly: ATX-II activated late (persistent) INa block, PatchXpress patch clamp. The format is cell-based. The protocol:
HEK-293 cell lines stably expressing either human NaV1.6 (NP_055006), mouse NaV1.6 (NP_035453.2), or rat NaV1.6 (NP_062139) were used. All cells were seeded at 2×10^6 cells per Nunc T75 flask for 2 days in culture. At time of harvest for assays, the cell counts were approximately 6×10^6 cells. Cells were washed (1×) in DPBS (Hyclone, Cat #SH30028.03) for approximately 30 seconds. 1 mL of 1×0.05% Trypsin-EDTA (GIBCO Cat #25300-054) was added and swirled around to cover the bottom of the flask and was allowed to sit on the cells for approximately 4 minutes (±90% of the cells were lifted by light tapping of the flask). 10 mL of warmed media (DMEM high glucose media Hyclone, SH30022.02 supplemented with 10% Fetal Bovine Serum, 2 mM Sodium Pyruvate, 10 mM HEPES and 400 μg/mL G418) was added to inactivate the trypsin. Cells were triturated until a single cell suspension was achieved. A cell count was performed and cells were aliquoted into a 250 ml centrifuge tube at a concentration of 2×10^5/mL in +30 ml of prewarmed media. The 250 mL centrifuge tube was placed on a rocker in an incubator set at 28° C. and gently rocked for approximately 1 hour to allow cells to recover. Cell aliquots of 5 mL (1×10^6 cells) were placed in a 15 mL centrifuge tube and spun at 100×g for 2 minutes. Supernatant was removed leaving a cell pellet. 100 μL of external recording solution was added to the pellet and triturated 20 times to achieve a single cell suspension and then transferred to a 1.5 mL tube for placement in the PatchXpress® (Molecular Devices).
Compound 1 was provided as powder and prepared as 10 mM DMSO stocks in 1 dram glass vials prior to assay. Immediately prior to assay, Compound 1 was diluted with DMSO to 300×, the designated final assay concentration. Assay dilutions (1× concentration) were prepared by pipetting 3 μL of diluted Compound 1 into 897 μL of extracellular solution in a 1 mL glass shell vial. Vials were capped and vortexed until initiation of the PatchXpress® (Molecular Devices) recording protocol.
The same intracellular recording solution was used for the persistent and peak INa assays, which contained: 135 mM CsF, 10 mM CsCl, 5 mM NaCl, 10 mM HEPES, 5 mM EGTA at a pH of 7.4 (adjusted with CsOH) and a measured osmolarity of 298 mOsm (adjusted with mannitol). For the persistent INa assay, the external recording solution contained: 135 mM NaCl, 5.4 mM KCl, 5 mM glucose, 2 mM CaCl2), 1 mM MgCl2, 10 mM HEPES, and 200 nM ATX-II (sea anemone toxin, Alomone Labs; Jerusalem, Israel) at a pH of 7.4 (adjusted with NaOH) and a measured osmolarity of 300 mOsm (adjusted with mannitol). For the peak INa assays, the external recording solution contained: 100 mM NaCl, 35 mM NMDG, 5.4 mM KCl, 5 mM glucose, 2 mM CaCl2), 1 mM MgCl2, and 10 mM HEPES at a pH of 7.4 (adjusted with NaOH) and a measured osmolarity of 300 mOsm (adjusted with mannitol).
All studies were performed using the PatchXpress® (Molecular Devices) automated patch clamp platform (Molecular Devices) using the whole cell configuration. Recordings were performed at room temperature. Data were collected using Patch Commander software (Molecular Devices) and processed using DataXpress 2.0 (Molecular Devices). Cell acceptance criteria were continuously monitored by custom scripts during the recording. Acceptance criteria for all assays were: baseline peak INa>800 pA, Rseal>200 MΩ, and, where appropriate, persistent INa>100 pA. Compensation was 50% and leak subtraction was not used. Currents were filtered at 5 kHz and digitized at 32.5 kHz. Raccess and Rseal were monitored throughout the recording and cells with Raccess>10 MΩ or Rseal<200 MΩ were terminated automatically by script.
Late (persistent) current Block: The inhibition of ATX-II activated late current was measured using a 200 ms voltage step to 0 mV. Protocols used low stimulation rates (about 0.1 Hz) and negative potentials (−120 mV) to keep channels in closed (resting) states.

The subject of test [5] is heterozygous Kcnq2 K556E mice. Nature of the test: Pentylenetetrazole (PTZ) induced seizure, Kcnq2 model. The format is in vivo, mouse. As to the method:
Pentylenetetrazole (PTZ), a GABA receptor antagonist, can be used to create a common, chemically-induced seizure model, a model of generalized seizure.
Mice were acclimated to experimental area for minimum 30 minutes before experimentation. All experiments were performed between 10:00 am and 12:30 pm. The treatment compounds and PTZ were always prepared fresh.
Mice were randomly assigned either to different doses of Compound 1 (10 mg/kg, 1 mg/kg, or 0.1 mg/kg) or a vehicle control containing 0.5% methylcellulose and 0.2% tween 80, and dosed via oral gavage (p.o). Compound 1 and the vehicle control were administered 60 minutes before the injection of PTZ.
PTZ (100 mg/kg) was dissolved in saline and administered subcutaneously (s.c) to the experimental mice. The latency to full tonic-clonic seizure with hind limb extension was measured. The animals were sacrificed either at the time of hind limb extension or 40 minutes after PTZ administration if no hind limb extension was recorded.
Data were analyzed using a Mantel-Cox log-rank test. Brain tissue and plasma were collected from some mice for each dose of Compound 1 at the PTZ endpoint for PK analysis.

Test [6] relates to CA1 pyramidal neurons. Nature of the test: Intrinsic excitability (evoked action potentials) of CA1 pyramidal neurons, brain slice whole-cell current clamp. The format is cell-based, mouse.
Description: Three hundred micrometer coronal hippocampal slices were cut on a vibratome (VT1200; Leica) for whole-cell patch-clamp experiments. Slices were incubated for a minimum of 1 hour in the incubation solution at room temperature before patching.
Brain slices were transferred to a submerged recording chamber on an upright microscope (Slicescope Pro 1000; Scientifica) and were perfused (2 ml/min) with the extracellular artificial cerebral spinal fluid (aCSF) recording solution at 32° C.
CA1 pyramidal neurons were identified visually in the stratum pyramidale of the CA1 region of the hippocampus, using infrared-oblique illumination microscopy with a 40× water-immersion objective (Olympus) using a camera (Dage IR-2000; Dage). […] Patch-clamp recordings were made using a micromanipulator (MPC-200; Sutter) and Axon Multiclamp 700B patch-clamp amplifier (MDS). Data were acquired using pClamp software (v10; MDS) using a sampling rate of 50 kHz and low pass Bessel filtered at 10 kHz (Digidata 1550b; Axon).
Studies were performed using whole-cell current clamp recording mode. […] Once the whole-cell configuration was obtained for 2 minutes, a holding current was injected to maintain a membrane potential of approximately −70 mV. Current steps (injected current of between −60 to 340 pA in 20 pA steps, 400 ms duration) (FIG. 1B)) were applied in current clamp mode. The amplitude of current injections was relative to the holding current. A test pulse (−5 pA amplitude, 50 ms duration) was applied 650 ms after the termination of the main current step. The inter sweep interval was 5 seconds (0.2 Hz). To be included in the study, a cell had to have an access resistance of less than 20 M2 and a holding current of less than −200 pA. Once baseline action potential firing was determined in the presence of the extracellular aCSF recording solution (baseline), Compound 1 (300 nM or 3 μM) was washed onto the slice for 5 minutes before repeating the action potential generating protocol (FIG. 1B).
Data were analyzed using Axograph X software. Individual action potentials were identified and counted using a +50 mV amplitude threshold relative to pre-event baseline. The frequencies of action potentials generated were plotted for each of the current injections to create an input-frequency relationship for each cell. Action potential amplitudes were determined relative to the pre-event baseline at the +200 pA current injection step for each cell. Once an action potential count had less than three cells contributing to the averaged amplitude, it was excluded from analysis. For statistical comparisons between groups, the total number of action potentials fired per cell was calculated. Statistical analysis was performed using GraphPad Prism software (v8). […]

SMILES strings stand for the structures.

T1 sequence (Q9UQD0 whole entry): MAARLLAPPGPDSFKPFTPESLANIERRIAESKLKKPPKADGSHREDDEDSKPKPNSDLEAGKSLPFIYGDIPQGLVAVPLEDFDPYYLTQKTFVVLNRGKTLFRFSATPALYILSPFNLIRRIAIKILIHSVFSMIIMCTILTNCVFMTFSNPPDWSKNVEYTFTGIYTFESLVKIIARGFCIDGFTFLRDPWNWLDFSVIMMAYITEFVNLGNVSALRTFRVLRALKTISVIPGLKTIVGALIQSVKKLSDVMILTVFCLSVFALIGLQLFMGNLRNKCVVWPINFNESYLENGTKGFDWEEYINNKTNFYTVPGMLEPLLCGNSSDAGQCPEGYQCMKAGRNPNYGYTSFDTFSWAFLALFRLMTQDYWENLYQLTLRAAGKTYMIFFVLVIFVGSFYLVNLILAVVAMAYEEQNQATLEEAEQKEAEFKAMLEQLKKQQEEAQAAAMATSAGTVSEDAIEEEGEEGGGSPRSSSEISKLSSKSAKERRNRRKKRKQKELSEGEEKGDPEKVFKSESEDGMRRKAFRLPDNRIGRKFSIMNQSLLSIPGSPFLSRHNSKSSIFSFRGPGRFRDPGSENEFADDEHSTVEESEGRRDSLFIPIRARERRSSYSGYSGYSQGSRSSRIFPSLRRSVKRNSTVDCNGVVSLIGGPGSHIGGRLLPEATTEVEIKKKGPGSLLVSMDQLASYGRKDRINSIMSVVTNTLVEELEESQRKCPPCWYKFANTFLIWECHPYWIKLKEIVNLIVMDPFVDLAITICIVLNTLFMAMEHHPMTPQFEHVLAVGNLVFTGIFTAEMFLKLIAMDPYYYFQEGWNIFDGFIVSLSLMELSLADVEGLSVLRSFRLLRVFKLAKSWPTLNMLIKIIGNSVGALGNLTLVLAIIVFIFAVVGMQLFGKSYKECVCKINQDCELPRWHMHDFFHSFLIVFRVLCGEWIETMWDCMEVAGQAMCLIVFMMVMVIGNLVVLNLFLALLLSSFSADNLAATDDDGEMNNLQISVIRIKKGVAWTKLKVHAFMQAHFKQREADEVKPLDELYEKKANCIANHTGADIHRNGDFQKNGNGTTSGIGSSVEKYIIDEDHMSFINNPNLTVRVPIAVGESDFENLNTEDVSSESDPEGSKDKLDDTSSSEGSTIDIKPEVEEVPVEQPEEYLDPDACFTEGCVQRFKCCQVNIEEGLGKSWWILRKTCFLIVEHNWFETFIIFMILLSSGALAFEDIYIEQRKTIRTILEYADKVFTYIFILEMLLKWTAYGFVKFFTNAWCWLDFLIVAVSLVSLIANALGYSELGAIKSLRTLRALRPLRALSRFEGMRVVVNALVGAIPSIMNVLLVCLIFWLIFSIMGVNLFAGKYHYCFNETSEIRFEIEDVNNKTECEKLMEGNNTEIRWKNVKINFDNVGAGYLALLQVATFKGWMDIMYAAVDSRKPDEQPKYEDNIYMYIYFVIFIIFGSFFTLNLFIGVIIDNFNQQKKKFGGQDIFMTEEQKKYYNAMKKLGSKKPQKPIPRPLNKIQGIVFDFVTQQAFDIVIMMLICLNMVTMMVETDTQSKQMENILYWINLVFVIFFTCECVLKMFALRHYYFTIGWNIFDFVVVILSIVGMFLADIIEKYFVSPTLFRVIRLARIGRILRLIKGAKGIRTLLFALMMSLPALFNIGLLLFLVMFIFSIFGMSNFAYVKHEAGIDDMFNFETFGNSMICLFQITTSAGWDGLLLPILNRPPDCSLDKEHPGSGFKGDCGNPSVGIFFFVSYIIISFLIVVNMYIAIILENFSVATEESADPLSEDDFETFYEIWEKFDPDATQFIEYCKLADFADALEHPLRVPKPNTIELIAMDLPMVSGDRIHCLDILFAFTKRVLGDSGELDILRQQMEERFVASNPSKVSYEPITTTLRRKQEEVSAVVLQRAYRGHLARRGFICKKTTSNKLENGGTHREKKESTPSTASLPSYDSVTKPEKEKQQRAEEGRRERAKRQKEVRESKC
Sequence of hNaV1.5 (Q14524 1-2015 isoform Q14524-2): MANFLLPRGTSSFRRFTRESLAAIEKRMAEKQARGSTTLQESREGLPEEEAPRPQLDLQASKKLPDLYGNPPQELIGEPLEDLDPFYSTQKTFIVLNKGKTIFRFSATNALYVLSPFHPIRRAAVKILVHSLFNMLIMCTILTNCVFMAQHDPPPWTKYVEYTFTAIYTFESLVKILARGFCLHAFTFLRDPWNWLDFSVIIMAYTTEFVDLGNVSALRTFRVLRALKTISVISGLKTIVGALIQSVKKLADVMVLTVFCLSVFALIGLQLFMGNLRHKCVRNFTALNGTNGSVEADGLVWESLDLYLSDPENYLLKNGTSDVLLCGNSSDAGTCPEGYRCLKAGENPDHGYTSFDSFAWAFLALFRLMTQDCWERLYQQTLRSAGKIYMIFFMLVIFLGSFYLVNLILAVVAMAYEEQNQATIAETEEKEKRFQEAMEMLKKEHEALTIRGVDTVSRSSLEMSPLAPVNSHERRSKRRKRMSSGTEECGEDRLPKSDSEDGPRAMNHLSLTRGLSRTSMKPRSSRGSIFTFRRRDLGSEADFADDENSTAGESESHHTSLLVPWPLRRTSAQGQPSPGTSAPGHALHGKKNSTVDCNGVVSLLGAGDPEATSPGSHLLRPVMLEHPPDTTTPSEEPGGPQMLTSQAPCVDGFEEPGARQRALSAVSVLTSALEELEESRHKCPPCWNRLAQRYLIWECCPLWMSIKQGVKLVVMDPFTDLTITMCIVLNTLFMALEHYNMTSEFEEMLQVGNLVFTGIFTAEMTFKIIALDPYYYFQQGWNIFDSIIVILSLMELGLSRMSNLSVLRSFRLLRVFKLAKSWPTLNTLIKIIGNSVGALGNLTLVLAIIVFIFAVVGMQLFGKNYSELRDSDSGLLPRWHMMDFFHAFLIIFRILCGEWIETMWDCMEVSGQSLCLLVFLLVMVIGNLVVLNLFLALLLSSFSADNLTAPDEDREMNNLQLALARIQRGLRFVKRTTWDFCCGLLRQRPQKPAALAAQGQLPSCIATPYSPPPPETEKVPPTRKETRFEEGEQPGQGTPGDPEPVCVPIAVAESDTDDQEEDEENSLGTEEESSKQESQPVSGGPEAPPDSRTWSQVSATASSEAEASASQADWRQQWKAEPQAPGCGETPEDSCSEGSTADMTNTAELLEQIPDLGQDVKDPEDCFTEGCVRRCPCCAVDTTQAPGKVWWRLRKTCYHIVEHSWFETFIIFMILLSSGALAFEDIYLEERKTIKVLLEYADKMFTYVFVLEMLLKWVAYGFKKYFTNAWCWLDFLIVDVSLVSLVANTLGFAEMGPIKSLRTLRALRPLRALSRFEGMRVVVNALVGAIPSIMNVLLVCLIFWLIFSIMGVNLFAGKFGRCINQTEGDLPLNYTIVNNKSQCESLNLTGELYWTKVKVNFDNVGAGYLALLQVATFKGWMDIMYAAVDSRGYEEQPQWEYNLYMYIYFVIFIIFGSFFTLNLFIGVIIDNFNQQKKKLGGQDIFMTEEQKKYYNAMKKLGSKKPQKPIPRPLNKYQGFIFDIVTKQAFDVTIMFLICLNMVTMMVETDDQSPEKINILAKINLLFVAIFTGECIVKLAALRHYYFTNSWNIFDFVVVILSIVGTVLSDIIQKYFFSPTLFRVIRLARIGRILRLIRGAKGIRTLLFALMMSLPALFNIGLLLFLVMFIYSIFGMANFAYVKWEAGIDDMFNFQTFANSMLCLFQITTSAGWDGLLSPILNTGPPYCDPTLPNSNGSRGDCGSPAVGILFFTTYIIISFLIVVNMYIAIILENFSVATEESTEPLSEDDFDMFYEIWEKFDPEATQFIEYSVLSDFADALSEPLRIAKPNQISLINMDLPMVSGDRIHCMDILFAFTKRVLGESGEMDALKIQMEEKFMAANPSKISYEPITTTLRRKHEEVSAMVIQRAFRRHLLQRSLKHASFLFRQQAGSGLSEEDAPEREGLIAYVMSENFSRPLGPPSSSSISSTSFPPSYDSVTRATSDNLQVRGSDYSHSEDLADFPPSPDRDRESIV

As a reminder, the IC50 is the concentration needed to halve the response being measured. A higher IC50 goes with a need for much substance. With `CCOC(F)(F)c1nnc2cnc(-c3cnc(OCC(F)(F)F)c(F)c3)cn12` [Compound 1, 3-(ethoxydifluoromethyl)-6-(5-fluoro-6-(2,2,2-trifluoroethoxy)pyridin-3-yl)-[1,2,4]triazolo[4,3-a]pyrazine], the “preference for persistent INa over peak INa voltage-dependent block” value in test [1] turned out to be 6.3 fold; in test [2] it was 5.8 fold; in test [3], 8.2 fold. For the same compound, in test [4] (hNaV1.6, ATX-II-evoked, holding −120 mV), the IC50 stood at 0.141 µM. In test [4] (hNaV1.6, all assay conditions), the “preference for persistent INa relative to peak INa” value is “preference for persistent INa”. Also, the “efficacy in KCNQ2 K556E PTZ seizure model” value in test [5] (10 mg/kg p.o., 60 min before PTZ 100 mg/kg s.c.) is reported as “highly efficacious”. Further, the “protection from hindlimb extension (FIG. 14C)” value in test [5] (Kcnq2 DEE mouse model, PTZ) was “robust anticonvulsant activity”. The “intrinsic excitability, number of evoked APs” value in test [6] (0.3 μmol/L (peak INa VDB IC50)) was “significantly reduced”. Also, the AP amplitude result in test [6] (+200 pA current injection, 0.3 μmol/L Compound 1, 45 μmol/L CBZ) was “without compromising”. In addition, the “number of action potentials generated / action potential firing frequency vs baseline” value in test [6] (Compound 1 at 0.3 and 3 μM, wildtype mice) was “significantly reduced”.
